Data set [1] has as its target CAMK1D (CaMKI delta) (Homo sapiens, UniProt Q8IU85). In words: SelectScreen Z'LYTE kinase profiling. As to conditions: ATP at apparent KM. Type of data set: biochemical.
Experimental: (§1) protein kinases at a compound concentration of 1 µM. Measurements were performed in duplicates
(§2) and at the particular apparent ATP KM of each individual kinase employing the activity based Z’LYTE®
(§3) kinase assay of the SelectScreen® Kinase Profiling Services (ThermoFisher Scientific).
(§4) kinases at a compound concentration of 1 µM. Measurements were performed in duplicates and at
(§5) the particular apparent ATP KM of each individual kinase employing the activity based Z’LYTE® kinase
(§6) assay of the SelectScreen® Kinase Profiling Services (ThermoFisher Scientific).
In data set [2] the target is PRKACA (PKA) (Homo sapiens, UniProt P17612). In words: SelectScreen Z'LYTE kinase profiling. It is filed as biochemical. Particulars: ATP at apparent KM.
Experimental: as §1, §2, §3, §4, §5, §6
In data set [3] the target is BTK (Homo sapiens, UniProt Q06187). In words: SelectScreen Z'LYTE kinase profiling. As to conditions: ATP at apparent KM. It is filed as biochemical.
Experimental: as §1, §2, §3, §4, §5, §6
In data set [4] the target is T1, TBK1 (Homo sapiens, UniProt Q9UHD2).
T1 sequence (Q9UHD2 1-729): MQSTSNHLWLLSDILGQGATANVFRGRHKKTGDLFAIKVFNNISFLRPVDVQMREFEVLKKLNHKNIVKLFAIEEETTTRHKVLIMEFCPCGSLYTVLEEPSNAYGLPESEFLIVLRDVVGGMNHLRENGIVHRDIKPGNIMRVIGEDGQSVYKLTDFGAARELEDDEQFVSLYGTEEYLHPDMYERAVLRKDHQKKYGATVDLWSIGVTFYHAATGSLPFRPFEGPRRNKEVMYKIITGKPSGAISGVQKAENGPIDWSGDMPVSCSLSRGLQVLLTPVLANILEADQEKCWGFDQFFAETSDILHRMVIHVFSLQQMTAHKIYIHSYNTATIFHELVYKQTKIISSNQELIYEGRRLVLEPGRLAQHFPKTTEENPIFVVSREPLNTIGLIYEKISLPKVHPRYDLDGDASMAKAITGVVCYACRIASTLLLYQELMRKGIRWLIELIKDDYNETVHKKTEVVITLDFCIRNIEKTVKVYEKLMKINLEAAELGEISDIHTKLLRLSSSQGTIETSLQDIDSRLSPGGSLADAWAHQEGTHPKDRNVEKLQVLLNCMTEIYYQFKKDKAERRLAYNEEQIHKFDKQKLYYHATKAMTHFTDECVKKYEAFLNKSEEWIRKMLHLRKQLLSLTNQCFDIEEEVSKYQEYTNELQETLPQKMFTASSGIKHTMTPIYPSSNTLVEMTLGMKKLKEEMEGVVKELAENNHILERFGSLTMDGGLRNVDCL
The data set can be described thus: SelectScreen Z'LYTE kinase profiling. It is filed as biochemical. As to conditions: ATP at apparent KM.

Data set [5] concerns the target NTRK2 (TRKB) (Homo sapiens, UniProt Q16620). The data set can be described thus: SelectScreen Z'LYTE kinase profiling. It is filed as biochemical. As to conditions: ATP at apparent KM.
Experimental: as §1, §2, §3, §4, §5, §6
Data set [6] in a line: Phase I metabolic stability assay. As to conditions: human, liver microsomes.
Experimental: For this purpose, we used a microsomal stability assay that is a good predictor for phase I metabolic stability.[50]
Metabolic stability under oxidative conditions was determined by LCMS-based measuring of
degradation of compounds at 3 µM in human and murine liver microsomes over 60 minutes at 37 °C
Calculating the compound half-life t1/2, the in vitro intrinsic clearance CLint is
Data set [7] addresses PRKCG (PKC gamma) (Homo sapiens, UniProt P05129). In words: SelectScreen Z'LYTE kinase profiling. Type of data set: biochemical. As to conditions: ATP at apparent KM.
Experimental: as §1, §2, §3, §4, §5, §6
The target in data set [8] is DNA-PK (Homo sapiens, UniProt P78527). In words: SelectScreen Z'LYTE kinase profiling. Type of data set: biochemical. As to conditions: ATP at apparent KM.
Experimental: as §1, §2, §3, §4, §5, §6
Data set [9] deals with PRKCB1 (PKC beta I) (Homo sapiens, UniProt P05771). The data set can be described thus: SelectScreen Z'LYTE kinase profiling. It is filed as biochemical. As to conditions: ATP at apparent KM.
Experimental: as §1, §2, §3, §4, §5, §6
In data set [10] the target is ALK (Homo sapiens, UniProt Q9UM73). In words: SelectScreen Z'LYTE kinase profiling. Type of data set: biochemical. Particulars: ATP at apparent KM.
Experimental: as §1, §2, §3, §4, §5, §6
The target of data set [11] is T2, CHEK1 (CHK1) (Homo sapiens, UniProt O14757).
T2 sequence (O14757 1-476): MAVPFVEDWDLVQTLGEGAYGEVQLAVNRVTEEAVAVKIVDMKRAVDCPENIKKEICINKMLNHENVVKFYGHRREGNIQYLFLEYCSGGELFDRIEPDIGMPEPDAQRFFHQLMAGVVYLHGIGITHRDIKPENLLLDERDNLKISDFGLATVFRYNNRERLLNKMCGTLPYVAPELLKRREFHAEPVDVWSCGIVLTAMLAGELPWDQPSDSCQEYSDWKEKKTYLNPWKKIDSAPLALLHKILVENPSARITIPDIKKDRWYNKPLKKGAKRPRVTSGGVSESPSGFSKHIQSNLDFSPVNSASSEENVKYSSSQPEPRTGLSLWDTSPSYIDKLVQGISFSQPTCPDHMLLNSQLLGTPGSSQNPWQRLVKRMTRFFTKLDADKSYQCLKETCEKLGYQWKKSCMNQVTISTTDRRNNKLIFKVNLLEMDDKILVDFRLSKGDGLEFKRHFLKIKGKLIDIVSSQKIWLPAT
In words: SelectScreen Z'LYTE kinase profiling. It is filed as biochemical. Particulars: ATP at apparent KM.
Experimental: as §1, §2, §3, §4, §5, §6

Data set [12] deals with AKT2 (PKB beta) (Homo sapiens, UniProt P31751). The data set can be described thus: SelectScreen Z'LYTE kinase profiling. It is filed as biochemical.
Data set [13] has as its target PASK (Homo sapiens, UniProt Q96RG2). In words: SelectScreen Z'LYTE kinase profiling. Type of data set: biochemical. Particulars: ATP at apparent KM.
Experimental: as §1, §2, §3, §4, §5, §6
In data set [14] the target is T3, DCAMKL2 (DCK2) (Homo sapiens, UniProt Q8N568).
T3 sequence (Q8N568 1-766): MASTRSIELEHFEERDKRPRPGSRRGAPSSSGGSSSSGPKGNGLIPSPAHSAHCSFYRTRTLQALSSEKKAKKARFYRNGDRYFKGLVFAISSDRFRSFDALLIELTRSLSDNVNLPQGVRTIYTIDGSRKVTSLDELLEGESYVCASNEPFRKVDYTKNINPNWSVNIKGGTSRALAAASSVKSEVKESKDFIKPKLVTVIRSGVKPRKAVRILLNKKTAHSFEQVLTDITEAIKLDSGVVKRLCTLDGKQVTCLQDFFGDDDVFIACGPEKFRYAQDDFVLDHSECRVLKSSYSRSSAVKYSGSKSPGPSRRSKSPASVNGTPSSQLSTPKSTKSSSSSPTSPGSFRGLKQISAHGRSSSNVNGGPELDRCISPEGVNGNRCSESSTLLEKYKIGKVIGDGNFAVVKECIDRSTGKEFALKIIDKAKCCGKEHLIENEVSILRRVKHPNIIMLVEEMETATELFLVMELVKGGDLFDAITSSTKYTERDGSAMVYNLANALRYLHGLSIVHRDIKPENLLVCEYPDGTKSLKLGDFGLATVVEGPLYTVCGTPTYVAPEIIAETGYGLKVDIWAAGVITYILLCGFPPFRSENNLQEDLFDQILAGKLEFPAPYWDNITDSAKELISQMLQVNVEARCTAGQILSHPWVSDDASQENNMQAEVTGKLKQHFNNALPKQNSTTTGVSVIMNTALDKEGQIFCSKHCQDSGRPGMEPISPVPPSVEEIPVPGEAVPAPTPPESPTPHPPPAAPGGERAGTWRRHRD
The data set can be described thus: SelectScreen Z'LYTE kinase profiling. As to conditions: ATP at apparent KM. Type of data set: biochemical.
Experimental: as §1, §2, §3, §4, §5, §6

Data set [15] addresses MAPK3 (ERK1) (Homo sapiens, UniProt P27361). In words: SelectScreen Z'LYTE kinase profiling. It is filed as biochemical. As to conditions: ATP at apparent KM.
Experimental: as §1, §2, §3, §4, §5, §6

Structures are written as SMILES. Like-named read-outs stand apart in the source and are kept apart here.

Experimental findings from publication PMC6430017, “Structural and chemical insights into the covalent-allosteric inhibition of the protein kinase Akt” (Chemical Science, 2019) are described below.

Usually inhibition stands for the relative decrease from the control value, in per cent. The term half-life denotes the time needed for the level to fall by half in the phase considered. A high value points to slow loss. The microsomal CLint is a measure of how fast metabolising enzymes remove a compound, apart from limits set by blood flow. Lower therefore signals slow turnover.

Sequence of CAMK1D (CaMKI delta) (Q8IU85 whole entry): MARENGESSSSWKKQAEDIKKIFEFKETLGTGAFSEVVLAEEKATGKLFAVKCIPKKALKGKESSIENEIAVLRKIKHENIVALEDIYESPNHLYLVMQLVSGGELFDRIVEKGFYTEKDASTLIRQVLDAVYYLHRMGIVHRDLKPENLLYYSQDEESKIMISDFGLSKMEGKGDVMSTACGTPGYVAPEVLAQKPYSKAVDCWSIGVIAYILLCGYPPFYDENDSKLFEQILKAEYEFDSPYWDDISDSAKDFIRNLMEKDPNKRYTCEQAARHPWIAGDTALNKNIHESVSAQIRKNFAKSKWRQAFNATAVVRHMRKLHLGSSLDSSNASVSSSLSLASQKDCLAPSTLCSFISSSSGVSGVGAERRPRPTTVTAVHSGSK
Sequence of NTRK2 (TRKB) (Q16620 32-822): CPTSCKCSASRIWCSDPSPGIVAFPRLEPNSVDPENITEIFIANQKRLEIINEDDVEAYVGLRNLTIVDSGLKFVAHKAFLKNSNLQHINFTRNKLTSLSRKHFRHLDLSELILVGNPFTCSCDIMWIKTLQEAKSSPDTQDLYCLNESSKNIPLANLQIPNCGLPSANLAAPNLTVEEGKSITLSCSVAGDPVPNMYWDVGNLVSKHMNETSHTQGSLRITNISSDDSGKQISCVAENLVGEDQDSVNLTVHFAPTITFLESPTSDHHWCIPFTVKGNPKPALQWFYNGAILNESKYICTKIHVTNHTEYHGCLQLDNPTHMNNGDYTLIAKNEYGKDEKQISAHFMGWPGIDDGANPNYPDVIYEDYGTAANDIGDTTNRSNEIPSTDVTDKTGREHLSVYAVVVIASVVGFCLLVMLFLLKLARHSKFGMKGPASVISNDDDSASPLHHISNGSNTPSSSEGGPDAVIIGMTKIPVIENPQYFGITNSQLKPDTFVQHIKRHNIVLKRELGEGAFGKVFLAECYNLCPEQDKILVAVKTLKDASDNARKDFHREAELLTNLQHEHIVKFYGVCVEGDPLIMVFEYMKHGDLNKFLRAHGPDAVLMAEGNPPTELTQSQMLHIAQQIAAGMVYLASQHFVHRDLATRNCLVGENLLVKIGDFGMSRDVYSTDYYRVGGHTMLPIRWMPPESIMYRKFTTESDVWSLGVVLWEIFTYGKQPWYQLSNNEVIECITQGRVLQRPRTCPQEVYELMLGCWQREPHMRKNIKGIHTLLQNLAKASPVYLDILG
Sequence of MAPK3 (ERK1) (P27361 whole entry): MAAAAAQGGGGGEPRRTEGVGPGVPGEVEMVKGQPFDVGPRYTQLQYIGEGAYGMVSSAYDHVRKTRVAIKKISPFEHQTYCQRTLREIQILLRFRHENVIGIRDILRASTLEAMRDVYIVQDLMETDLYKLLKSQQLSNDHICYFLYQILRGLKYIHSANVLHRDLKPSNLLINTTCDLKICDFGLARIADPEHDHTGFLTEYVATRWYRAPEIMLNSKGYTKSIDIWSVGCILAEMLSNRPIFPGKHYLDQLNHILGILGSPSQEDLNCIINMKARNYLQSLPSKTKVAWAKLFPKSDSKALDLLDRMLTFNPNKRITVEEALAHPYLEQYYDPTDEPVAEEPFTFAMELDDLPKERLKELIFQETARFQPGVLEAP
Sequence of ALK (Q9UM73 19-1620): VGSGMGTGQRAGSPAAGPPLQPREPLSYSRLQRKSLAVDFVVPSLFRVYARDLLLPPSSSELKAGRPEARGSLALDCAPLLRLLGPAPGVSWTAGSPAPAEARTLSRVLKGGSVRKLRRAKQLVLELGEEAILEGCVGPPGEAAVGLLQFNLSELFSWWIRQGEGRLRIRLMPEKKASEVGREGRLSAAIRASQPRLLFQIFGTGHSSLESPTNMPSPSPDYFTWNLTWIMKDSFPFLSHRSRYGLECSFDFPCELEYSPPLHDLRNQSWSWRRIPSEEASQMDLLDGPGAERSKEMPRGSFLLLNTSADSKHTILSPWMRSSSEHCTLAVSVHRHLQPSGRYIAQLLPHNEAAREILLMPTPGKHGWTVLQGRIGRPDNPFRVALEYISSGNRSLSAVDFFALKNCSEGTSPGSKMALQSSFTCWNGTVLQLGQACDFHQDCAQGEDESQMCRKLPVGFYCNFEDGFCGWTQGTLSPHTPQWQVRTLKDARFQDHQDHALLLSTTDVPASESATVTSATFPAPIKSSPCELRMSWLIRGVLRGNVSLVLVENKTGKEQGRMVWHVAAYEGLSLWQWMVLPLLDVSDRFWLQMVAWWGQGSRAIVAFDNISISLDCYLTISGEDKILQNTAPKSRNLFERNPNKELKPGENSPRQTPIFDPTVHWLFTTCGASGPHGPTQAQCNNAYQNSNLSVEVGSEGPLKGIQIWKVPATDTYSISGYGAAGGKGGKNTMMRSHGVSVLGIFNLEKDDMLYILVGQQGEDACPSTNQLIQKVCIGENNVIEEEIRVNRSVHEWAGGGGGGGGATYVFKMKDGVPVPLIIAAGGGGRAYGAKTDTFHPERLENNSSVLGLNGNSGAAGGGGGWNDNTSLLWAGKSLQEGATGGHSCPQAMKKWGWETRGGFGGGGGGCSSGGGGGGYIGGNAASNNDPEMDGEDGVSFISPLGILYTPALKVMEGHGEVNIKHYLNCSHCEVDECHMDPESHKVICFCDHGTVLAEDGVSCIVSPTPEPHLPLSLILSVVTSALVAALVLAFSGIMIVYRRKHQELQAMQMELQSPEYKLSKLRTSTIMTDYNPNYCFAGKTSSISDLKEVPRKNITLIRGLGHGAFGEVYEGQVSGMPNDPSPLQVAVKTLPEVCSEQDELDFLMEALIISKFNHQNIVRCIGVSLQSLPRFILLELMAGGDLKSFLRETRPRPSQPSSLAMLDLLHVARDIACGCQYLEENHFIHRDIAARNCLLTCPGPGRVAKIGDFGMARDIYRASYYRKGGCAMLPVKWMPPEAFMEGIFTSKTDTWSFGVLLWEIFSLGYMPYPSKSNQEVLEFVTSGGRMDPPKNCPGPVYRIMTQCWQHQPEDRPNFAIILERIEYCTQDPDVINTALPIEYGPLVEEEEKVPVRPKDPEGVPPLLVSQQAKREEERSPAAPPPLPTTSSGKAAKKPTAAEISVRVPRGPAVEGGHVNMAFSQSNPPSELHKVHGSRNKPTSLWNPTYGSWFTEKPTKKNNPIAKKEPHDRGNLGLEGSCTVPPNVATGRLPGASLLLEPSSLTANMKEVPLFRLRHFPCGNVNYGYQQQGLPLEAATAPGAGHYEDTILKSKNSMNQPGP
Sequence of BTK (Q06187 whole entry): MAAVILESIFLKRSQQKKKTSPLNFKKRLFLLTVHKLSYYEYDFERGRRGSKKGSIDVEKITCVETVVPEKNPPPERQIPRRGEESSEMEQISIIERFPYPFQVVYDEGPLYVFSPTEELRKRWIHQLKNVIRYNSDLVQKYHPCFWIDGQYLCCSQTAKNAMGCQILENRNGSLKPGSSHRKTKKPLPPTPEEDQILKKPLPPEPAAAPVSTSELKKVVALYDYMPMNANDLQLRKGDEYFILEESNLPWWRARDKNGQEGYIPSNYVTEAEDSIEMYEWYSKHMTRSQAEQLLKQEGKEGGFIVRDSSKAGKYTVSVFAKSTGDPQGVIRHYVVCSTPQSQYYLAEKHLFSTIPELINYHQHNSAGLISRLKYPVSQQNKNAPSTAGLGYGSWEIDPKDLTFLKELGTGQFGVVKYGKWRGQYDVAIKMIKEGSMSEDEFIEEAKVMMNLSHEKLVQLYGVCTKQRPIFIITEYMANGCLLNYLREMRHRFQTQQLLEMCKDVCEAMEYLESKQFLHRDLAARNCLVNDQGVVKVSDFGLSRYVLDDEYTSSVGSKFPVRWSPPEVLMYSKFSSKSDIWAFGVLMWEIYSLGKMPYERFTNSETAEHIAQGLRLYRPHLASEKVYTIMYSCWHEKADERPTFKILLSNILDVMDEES
Sequence of PRKCB1 (PKC beta I) (P05771 whole entry): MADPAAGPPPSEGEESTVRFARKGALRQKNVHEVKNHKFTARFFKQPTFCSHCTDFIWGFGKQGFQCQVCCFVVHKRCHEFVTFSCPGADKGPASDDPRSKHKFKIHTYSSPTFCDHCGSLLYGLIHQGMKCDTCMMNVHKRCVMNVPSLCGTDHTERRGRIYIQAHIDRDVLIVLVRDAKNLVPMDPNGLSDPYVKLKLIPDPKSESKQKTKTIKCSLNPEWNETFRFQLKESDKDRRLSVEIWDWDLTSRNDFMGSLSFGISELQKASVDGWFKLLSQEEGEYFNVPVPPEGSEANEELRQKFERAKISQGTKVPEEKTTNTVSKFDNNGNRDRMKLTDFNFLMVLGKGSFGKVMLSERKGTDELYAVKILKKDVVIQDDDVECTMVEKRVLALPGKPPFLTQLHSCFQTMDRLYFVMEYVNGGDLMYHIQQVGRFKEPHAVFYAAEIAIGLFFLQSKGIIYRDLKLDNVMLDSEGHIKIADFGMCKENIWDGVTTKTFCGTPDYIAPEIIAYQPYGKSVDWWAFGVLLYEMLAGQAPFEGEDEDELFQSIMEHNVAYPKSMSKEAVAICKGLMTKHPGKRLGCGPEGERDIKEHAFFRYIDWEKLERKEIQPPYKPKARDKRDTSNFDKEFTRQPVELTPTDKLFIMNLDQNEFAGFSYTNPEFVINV
Sequence of AKT2 (PKB beta) (P31751 whole entry): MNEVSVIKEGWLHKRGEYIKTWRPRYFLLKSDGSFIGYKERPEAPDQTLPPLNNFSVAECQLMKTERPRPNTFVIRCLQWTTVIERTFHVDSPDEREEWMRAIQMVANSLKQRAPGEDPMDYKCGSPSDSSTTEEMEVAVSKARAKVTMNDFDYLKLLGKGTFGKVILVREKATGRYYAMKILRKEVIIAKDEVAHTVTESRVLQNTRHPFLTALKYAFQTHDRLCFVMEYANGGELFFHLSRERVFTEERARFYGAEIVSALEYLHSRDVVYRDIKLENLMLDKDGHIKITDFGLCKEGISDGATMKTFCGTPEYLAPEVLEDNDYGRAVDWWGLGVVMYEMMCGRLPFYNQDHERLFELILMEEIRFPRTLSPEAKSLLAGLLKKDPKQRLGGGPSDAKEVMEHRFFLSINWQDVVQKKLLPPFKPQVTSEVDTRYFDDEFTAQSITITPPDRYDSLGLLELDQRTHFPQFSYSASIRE

Consider `C=CC(=O)Nc1ccc2c(c1)n(C1CCN(Cc3ccc(-c4nc5cc[nH]c(=O)c5cc4-c4ccccc4)cc3)CC1)c(=O)n2C` [24b], for which the inhibition at 1 µM in data set [1] is 9%; in data set [2] it was 2%; in data set [3] it was 12%; in data set [4], 4%; in [5], 0%; in data set [7] it was -3%. In addition, the inhibition at 1 µM was 7% in data set [8]; 7% in [9]; -3% in data set [10]; -3% in data set [11]; 97% in data set [12] (1 µM, ATP at apparent KM, read-out: % inhibition); 4% in [13]. Further, the inhibition at 1 µM was -1% in data set [14] and 0% in data set [15]. Also, in [6], the half-life at 1 h, 3 µM turned out to be 25 min. This compound also gave a microsomal CLint at 3 µM in [6] of 19 µL/min/mg.
In the case of `C=CC(=O)Nc1cccc(C(=O)NC2CCN(Cc3ccc(-c4nc5cc[nH]c(=O)c5cc4-c4ccccc4)cc3)CC2)c1` [30b], the inhibition at 1 µM in data set [1] was 3%; in [2], 10%; in [3] it was 22%; in [4], 5%; in [5], 8%; in data set [7], 0%. Moreover, the inhibition at 1 µM was determined as 8% in data set [8]; 6% in data set [9]; 1% in data set [10]; 9% in data set [11]; 76% in [12]; 29% in data set [13]. The inhibition at 1 µM in data set [14] and in data set [15] was 3% throughout. The compound further returned a half-life at 1 h, 3 µM in [6] of 58 min. The same compound showed an intrinsic metabolic clearance (microsomal CLint) at 3 µM in data set [6] of 8 µL/min/mg.
On to `C=CC(=O)Nc1cc(NC(=O)NC2CCN(Cc3ccc(-c4nc5cc[nH]c(=O)c5cc4-c4ccccc4)cc3)CC2)ccc1Cl` [compound 27], for which the inhibition at 1 µM in data set [1] is 12%; in [2], -4%; in data set [3], 10%; in [4], 3%; in data set [5], 1%; in [7], -6%. Moreover, the inhibition at 1 µM in data set [8] was determined as 5%; in [9], 6%; in data set [10], 2%; in data set [11], 8%; in [12], 80%; in [13], 61%. In addition, the inhibition at 1 µM in data set [14] was -1%; in data set [15], 3%. The compound further showed a half-life at 1 h, 3 µM in data set [6] of 19 min. The same compound came in with a microsomal CLint at 3 µM in [6] of 24 µL/min/mg.
